# Laboratory results published in paper PMC4561586 (Biochimica et biophysica acta, 2015).
# Target: T1, Nostoc linoleate 10S-dioxygenase (10S-DOX) (Nostoc punctiforme, UniProt B2J5P4)
# T1 sequence (B2J5P4 1-542): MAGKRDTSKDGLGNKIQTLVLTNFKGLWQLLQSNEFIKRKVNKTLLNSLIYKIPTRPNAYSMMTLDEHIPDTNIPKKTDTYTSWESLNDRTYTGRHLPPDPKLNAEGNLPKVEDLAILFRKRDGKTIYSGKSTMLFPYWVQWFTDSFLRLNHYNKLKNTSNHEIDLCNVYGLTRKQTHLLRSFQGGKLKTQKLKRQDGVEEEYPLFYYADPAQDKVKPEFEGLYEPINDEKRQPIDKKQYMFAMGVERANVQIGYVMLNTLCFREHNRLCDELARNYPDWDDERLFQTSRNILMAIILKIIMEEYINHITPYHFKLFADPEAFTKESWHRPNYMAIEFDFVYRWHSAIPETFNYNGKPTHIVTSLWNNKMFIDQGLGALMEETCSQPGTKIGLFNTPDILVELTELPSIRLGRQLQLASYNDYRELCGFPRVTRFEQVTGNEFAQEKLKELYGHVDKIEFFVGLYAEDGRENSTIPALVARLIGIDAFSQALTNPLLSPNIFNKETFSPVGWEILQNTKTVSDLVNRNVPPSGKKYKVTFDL
# Assay: oxygen uptake kinetics
# Format: biochemical
compound,measurement,value
"CCCCC/C=C\C/C=C\CCCCCCCC(=O)O [LA, linoleic acid]",Km,60.3 µM
